Test results from patent US7709223B2, “Method for detecting bacteria with chromogenic substrates for β-D-ribofuranosidase” (priority 2001, dated 2010).
Where a name gives a salt, the structure may show the parent alone.

How the values were obtained:
Experiment in all cases: Hydrolysis on Columbia agar with ferric ammonium citrate
Type in all cases: cell-based
Aeromonas caviae = tested on: Aeromonas caviae; set-up: key to the marks not given beside the values; conditions: Aeromonas caviae NCTC 10852
Experimental: (§1) The chromogenic β-D-ribofuranoside substrate was added to Columbia agar at a substrate concentration of 300 mg/l. Ferric ammonium citrate was included at 500 mg/l. All ingredients were autoclaved at 116° C. for 20 minutes to ensure sterilisation. Agar plates were then prepared in 90 mm petri dishes. The substrate caused a yellow colouration of the agar.
(§2) For each strain tested, a bacterial suspension was prepared in sterile deionised water at an inoculum of approximately 1.5×10^8 colony forming units per ml. This was achieved using a densitometer. 1 μl of each bacterial suspension was then inoculated onto each plate using a multipoint inoculator. Strains were inoculated in parallel onto Columbia agar containing ferric ammonium citrate with no substrate (negative control).
(§3) After 18 hours incubation, strains were examined visually for the presence of colour. Any strains producing a black colouration on substrate containing media but not on the negative control plates were deemed to be hydrolysing the substrate.

Aeromonas hydrophila = tested on: Aeromonas hydrophila; set-up: key to the marks not given beside the values; conditions: Aeromonas hydrophila NCTC 8049
Experimental: as §1, §2, §3

C. diversus = tested on: C. diversus; set-up: key to the marks not given beside the values
Experimental: as §1, §2, §3

C. freundii = tested on: C. freundii; set-up: key to the marks not given beside the values
Experimental: as §1, §2, §3

E. cloacae = tested on: E. cloacae; set-up: key to the marks not given beside the values
Experimental: as §1, §2, §3

E. coli 0157 = tested on: E. coli 0157; set-up: key to the marks not given beside the values
Experimental: as §1, §2, §3

Hafnia alvei = tested on: Hafnia alvei; set-up: key to the marks not given beside the values
Experimental: as §1, §2, §3

K. oxytoca = tested on: K. oxytoca; set-up: key to the marks not given beside the values
Experimental: as §1, §2, §3

Salmonella alachia = tested on: Salmonella alachia; set-up: key to the marks not given beside the values; conditions: Salmonella alachia SAX 60
Experimental: as §1, §2, §3

Salmonella hadar = tested on: Salmonella hadar; set-up: key to the marks not given beside the values; conditions: Salmonella hadar SAX 57
Experimental: as §1, §2, §3

Salmonella orthmarchen = tested on: Salmonella orthmarchen; set-up: key to the marks not given beside the values; conditions: Salmonella orthmarchen SAX 59
Experimental: as §1, §2, §3

Salmonella panama = tested on: Salmonella panama; set-up: key to the marks not given beside the values; conditions: Salmonella panama SAX 58
Experimental: as §1, §2, §3

Salmonella typhimurium = tested on: Salmonella typhimurium; set-up: key to the marks not given beside the values; conditions: Salmonella typhimurium NCTC 74
Experimental: as §1, §2, §3

Salmonella typhi = tested on: Salmonella typhi; set-up: key to the marks not given beside the values; conditions: Salmonella typhi NCTC 8385
Experimental: as §1, §2, §3

Serratia marcescens = tested on: Serratia marcescens; set-up: key to the marks not given beside the values; conditions: Serratia marcescens NCTC 10211
Experimental: as §1, §2, §3

Serratia spp. = tested on: Serratia spp.; set-up: key to the marks not given beside the values
Experimental: as §1, §2, §3

Shigella boydii = tested on: Shigella boydii; set-up: key to the marks not given beside the values
Experimental: as §1, §2, §3

Shigella flexneri = tested on: Shigella flexneri; set-up: key to the marks not given beside the values
Experimental: as §1, §2, §3

Staphylococcus aureus = tested on: Staphylococcus aureus; set-up: key to the marks not given beside the values
Experimental: as §1, §2, §3

[1] = tested on: Staphylococcus saprophyticus; set-up: key to the marks not given beside the values
Experimental: as §1, §2, §3

Vibrio fluvialis = tested on: Vibrio fluvialis; set-up: key to the marks not given beside the values; conditions: Vibrio fluvialis NCTC 11327
Experimental: as §1, §2, §3

Vibrio harveyi = tested on: Vibrio harveyi; set-up: key to the marks not given beside the values; conditions: Vibrio harveyi NCTC 11346
Experimental: as §1, §2, §3

Vibrio metschnikovii = tested on: Vibrio metschnikovii; set-up: key to the marks not given beside the values; conditions: Vibrio metschnikovii NCTC 8443
Experimental: as §1, §2, §3

E. aerogenes = tested on: E. aerogenes; set-up: β-Riboside (hydrolysis): key to the marks not given beside the values
Experimental: as §1, §2, §3

E. coli = tested on: E. coli; set-up: β-Riboside (hydrolysis): key to the marks not given beside the values
Experimental: as §1, §2, §3

K. pneumoniae = tested on: K. pneumoniae; set-up: β-Riboside (hydrolysis): key to the marks not given beside the values
Experimental: as §1, §2, §3

O=c1cc(-c2ccc(OC3OC(CO)C(O)C3O)c(O)c2)oc2ccccc12 [DHF-riboside, 3′,4′-Dihydroxyflavone-4′-β-D-ribofuranoside sodium salt]
++: β-Riboside (hydrolysis) (Aeromonas caviae) | β-Riboside (hydrolysis) (Aeromonas hydrophila) | β-Riboside (hydrolysis) (C. diversus; C. diversus CDI 1) | β-Riboside (hydrolysis) (C. diversus; C. diversus CDI 2) | β-Riboside (hydrolysis) (C. freundii; C. freundii CFR 1) | β-Riboside (hydrolysis) (C. freundii; C. freundii CFR 2) | β-Riboside (hydrolysis) (C. freundii; C. freundii CFR 3) | β-Riboside (hydrolysis) (C. freundii; C. freundii CFR 4) | β-Riboside (hydrolysis) (C. freundii; C. freundii NCTC 9750) | β-Riboside (hydrolysis) (E. cloacae; E. cloacae ECL 1) | β-Riboside (hydrolysis) (E. cloacae; E. cloacae ECL 2) | β-Riboside (hydrolysis) (E. cloacae; E. cloacae ECL 3) | β-Riboside (hydrolysis) (E. cloacae; E. cloacae ECL 4) | β-Riboside (hydrolysis) (E. cloacae; E. cloacae NCTC 11936) | β-Riboside (hydrolysis) (E. coli 0157; E. coli 0157 NCTC 12079) | β-Riboside (hydrolysis) (E. coli 0157; E. coli 0157 NCTC 12080) | β-Riboside (hydrolysis) (E. coli 0157; E. coli 0157 NCTC 12900) | β-Riboside (hydrolysis) (E. coli 0157; E. coli 0157 NCTC 13125) | β-Riboside (hydrolysis) (E. coli 0157; E. coli 0157 NCTC 13126) | β-Riboside (hydrolysis) (E. coli 0157; E. coli 0157 NCTC 13127) | β-Riboside (hydrolysis) (E. coli 0157; E. coli 0157 NCTC 13128) | β-Riboside (hydrolysis) (Hafnia alvei; Hafnia alvei HAL 2) | β-Riboside (hydrolysis) (Hafnia alvei; Hafnia alvei NCTC 8105) | β-Riboside (hydrolysis) (K. oxytoca; K. oxytoca KOX 1) | β-Riboside (hydrolysis) (K. oxytoca; K. oxytoca KOX 2) | β-Riboside (hydrolysis) (Salmonella alachia) | β-Riboside (hydrolysis) (Salmonella hadar) | β-Riboside (hydrolysis) (Salmonella orthmarchen) | β-Riboside (hydrolysis) (Salmonella panama) | β-Riboside (hydrolysis) (Salmonella typhimurium) | β-Riboside (hydrolysis) (Salmonella typhi) | β-Riboside (hydrolysis) (Serratia marcescens) | β-Riboside (hydrolysis) (Serratia spp.; Serratia spp. SEX 1) | β-Riboside (hydrolysis) (Serratia spp.; Serratia spp. SEX 2) | β-Riboside (hydrolysis) (Serratia spp.; Serratia spp. SEX 3) | β-Riboside (hydrolysis) (Serratia spp.; Serratia spp. SEX 4) | β-Riboside (hydrolysis) (Shigella boydii; Shigella boydii NCTC 9327) | β-Riboside (hydrolysis) (Shigella boydii; Shigella boydii NCTC 9732) | β-Riboside (hydrolysis) (Shigella boydii; Shigella boydii NCTC 9850) | β-Riboside (hydrolysis) (Shigella flexneri; Shigella flexneri NCTC 8192) | β-Riboside (hydrolysis) (Shigella flexneri; Shigella flexneri NCTC 9723) | β-Riboside (hydrolysis) (Shigella flexneri; Shigella flexneri NCTC 9780) | β-Ribofuranoside (hydrolysis) (Staphylococcus aureus; Reference No. 1) | β-Ribofuranoside (hydrolysis) (Staphylococcus aureus; Reference No. 2) | β-Ribofuranoside (hydrolysis) (Staphylococcus aureus; Reference No. 3) | β-Ribofuranoside (hydrolysis) (Staphylococcus aureus; Reference No. 4) | β-Ribofuranoside (hydrolysis) (Staphylococcus aureus; Reference No. 5) | β-Ribofuranoside (hydrolysis) ([1]; Reference No. 1) | β-Ribofuranoside (hydrolysis) ([1]; Reference No. 2) | β-Ribofuranoside (hydrolysis) ([1]; Reference No. 3) | β-Ribofuranoside (hydrolysis) ([1]; Reference No. 4) | β-Ribofuranoside (hydrolysis) ([1]; Reference No. 5) | β-Riboside (hydrolysis) (Vibrio fluvialis) | β-Riboside (hydrolysis) (Vibrio harveyi) | β-Riboside (hydrolysis) (Vibrio metschnikovii) | β-Riboside (hydrolysis) (E. aerogenes; E. aerogenes EAE 1) | β-Riboside (hydrolysis) (E. aerogenes; E. aerogenes NCIMB 10102) | β-Riboside (hydrolysis) (E. coli; E. coli ECO 2) | β-Riboside (hydrolysis) (E. coli; E. coli ECO 3) | β-Riboside (hydrolysis) (E. coli; E. coli ECO 4) | β-Riboside (hydrolysis) (E. coli; E. coli ECO 5) | β-Riboside (hydrolysis) (E. coli; E. coli ECO 6) | β-Riboside (hydrolysis) (E. coli; E. coli ECO 7) | β-Riboside (hydrolysis) (E. coli; E. coli ECO 8) | β-Riboside (hydrolysis) (E. coli; E. coli ECO 9) | β-Riboside (hydrolysis) (E. coli; E. coli ECO 10) | β-Riboside (hydrolysis) (E. coli; E. coli ECO 11) | β-Riboside (hydrolysis) (E. coli; E. coli ECO 12) | β-Riboside (hydrolysis) (E. coli; E. coli NCTC 10418) | β-Riboside (hydrolysis) (K. pneumoniae; K. pneumoniae KPN 2) | β-Riboside (hydrolysis) (K. pneumoniae; K. pneumoniae KPN 3) | β-Riboside (hydrolysis) (K. pneumoniae; K. pneumoniae KPN 4) | β-Riboside (hydrolysis) (K. pneumoniae; K. pneumoniae NCTC 10896)
